Key:
PI3Kalpha = PI3Kalpha (Homo sapiens (Human), UniProt P42336); test: HTRF PI3K biochemical assay, alpha isoform (selectivity versus delta); details: ratio PI3K-alpha IC50 value/PI3K-delta IC50 value
Method: (§1) HTRF PI3K Biochemical Assay to Measure Intrinsic Potency of Compound Inhibitors
(§2) This loss of signal is nonlinear with respect to both increasing product and time. This non-linear detection will impact accuracy of IC50 calculations; therefore, there is a need for a correction factor to obtain more accurate IC50 values. This correction is derived from a PIP3 standard curve run in a separate assay plate. All data were calculated using the ratio of acceptor (APC) to donor (Europium) fluorescence in each well of the assay plate. […] An IC50 was then calculated fitting the % inhibition data to the equation: % inhibition=min+(Max−min)/1+([inhibitor]/IC50)^n) where min is the % inhibition with inhibitor, max is the signal in DMSO control, and n is the Hill slope.
(§3) The biological data was collected using the methodology described above.
The determination of relative selectivity for a given compound is defined as the relative ratio of the (PI3K-alphaIC50 value/PI3K-delta IC50 value).

PI3Kdelta = PI3Kdelta (Homo sapiens (Human), UniProt O00329); test: HTRF PI3K biochemical assay, delta isoform; details: 0.3 nM enzyme, 100 uM ATP, 50 uM PIP2; form screened (neutral or TFA salt)
Sequence of PI3Kdelta (O00329 whole entry, canonical isoform): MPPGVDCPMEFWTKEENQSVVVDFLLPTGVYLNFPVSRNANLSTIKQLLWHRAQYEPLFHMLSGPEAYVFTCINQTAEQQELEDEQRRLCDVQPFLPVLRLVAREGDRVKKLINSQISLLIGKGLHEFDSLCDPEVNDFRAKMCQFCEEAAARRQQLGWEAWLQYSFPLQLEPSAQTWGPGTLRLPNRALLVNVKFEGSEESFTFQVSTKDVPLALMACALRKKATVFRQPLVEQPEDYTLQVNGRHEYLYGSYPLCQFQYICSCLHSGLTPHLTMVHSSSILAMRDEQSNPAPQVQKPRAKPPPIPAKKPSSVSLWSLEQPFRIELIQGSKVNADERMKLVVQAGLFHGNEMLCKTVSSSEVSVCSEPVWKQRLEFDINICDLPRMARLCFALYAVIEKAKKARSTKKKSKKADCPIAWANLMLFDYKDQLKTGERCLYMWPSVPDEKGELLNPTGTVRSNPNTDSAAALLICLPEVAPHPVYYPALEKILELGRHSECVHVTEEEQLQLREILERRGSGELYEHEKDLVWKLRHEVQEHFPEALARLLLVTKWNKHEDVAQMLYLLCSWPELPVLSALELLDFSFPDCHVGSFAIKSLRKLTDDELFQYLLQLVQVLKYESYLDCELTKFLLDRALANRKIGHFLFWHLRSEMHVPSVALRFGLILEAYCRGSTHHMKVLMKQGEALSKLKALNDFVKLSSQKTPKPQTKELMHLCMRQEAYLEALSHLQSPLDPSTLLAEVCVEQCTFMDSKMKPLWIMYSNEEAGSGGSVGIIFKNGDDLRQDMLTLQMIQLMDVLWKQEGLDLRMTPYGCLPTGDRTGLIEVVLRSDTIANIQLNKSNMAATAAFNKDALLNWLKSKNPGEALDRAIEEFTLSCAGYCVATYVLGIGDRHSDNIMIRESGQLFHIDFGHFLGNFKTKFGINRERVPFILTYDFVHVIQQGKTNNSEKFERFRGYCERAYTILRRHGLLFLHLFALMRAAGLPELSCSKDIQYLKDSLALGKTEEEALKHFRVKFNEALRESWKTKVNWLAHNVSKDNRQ
Sequence of PI3Kdelta (P27986 whole entry partner, canonical isoform): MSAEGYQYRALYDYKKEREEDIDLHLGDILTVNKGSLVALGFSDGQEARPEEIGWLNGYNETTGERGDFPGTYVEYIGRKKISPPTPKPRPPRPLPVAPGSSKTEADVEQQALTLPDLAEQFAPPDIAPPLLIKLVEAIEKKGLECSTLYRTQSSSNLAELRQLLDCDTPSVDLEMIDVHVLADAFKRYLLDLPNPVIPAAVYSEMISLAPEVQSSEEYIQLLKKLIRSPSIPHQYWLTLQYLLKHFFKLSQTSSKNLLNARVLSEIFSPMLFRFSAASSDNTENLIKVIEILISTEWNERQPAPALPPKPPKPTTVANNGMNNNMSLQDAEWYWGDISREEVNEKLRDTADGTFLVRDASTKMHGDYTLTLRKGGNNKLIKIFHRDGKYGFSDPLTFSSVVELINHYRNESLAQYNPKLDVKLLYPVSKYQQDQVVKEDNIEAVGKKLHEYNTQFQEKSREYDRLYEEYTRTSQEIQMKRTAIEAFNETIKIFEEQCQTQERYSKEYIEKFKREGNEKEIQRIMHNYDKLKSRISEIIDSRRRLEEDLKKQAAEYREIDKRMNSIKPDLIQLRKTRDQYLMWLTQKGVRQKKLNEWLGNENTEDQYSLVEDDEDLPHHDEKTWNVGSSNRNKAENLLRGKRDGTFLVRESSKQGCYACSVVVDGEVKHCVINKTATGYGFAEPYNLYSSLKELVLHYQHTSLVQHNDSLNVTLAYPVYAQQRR
Method: as §1, §2, §3

Sequence of PI3Kalpha (P42336 whole entry, canonical isoform): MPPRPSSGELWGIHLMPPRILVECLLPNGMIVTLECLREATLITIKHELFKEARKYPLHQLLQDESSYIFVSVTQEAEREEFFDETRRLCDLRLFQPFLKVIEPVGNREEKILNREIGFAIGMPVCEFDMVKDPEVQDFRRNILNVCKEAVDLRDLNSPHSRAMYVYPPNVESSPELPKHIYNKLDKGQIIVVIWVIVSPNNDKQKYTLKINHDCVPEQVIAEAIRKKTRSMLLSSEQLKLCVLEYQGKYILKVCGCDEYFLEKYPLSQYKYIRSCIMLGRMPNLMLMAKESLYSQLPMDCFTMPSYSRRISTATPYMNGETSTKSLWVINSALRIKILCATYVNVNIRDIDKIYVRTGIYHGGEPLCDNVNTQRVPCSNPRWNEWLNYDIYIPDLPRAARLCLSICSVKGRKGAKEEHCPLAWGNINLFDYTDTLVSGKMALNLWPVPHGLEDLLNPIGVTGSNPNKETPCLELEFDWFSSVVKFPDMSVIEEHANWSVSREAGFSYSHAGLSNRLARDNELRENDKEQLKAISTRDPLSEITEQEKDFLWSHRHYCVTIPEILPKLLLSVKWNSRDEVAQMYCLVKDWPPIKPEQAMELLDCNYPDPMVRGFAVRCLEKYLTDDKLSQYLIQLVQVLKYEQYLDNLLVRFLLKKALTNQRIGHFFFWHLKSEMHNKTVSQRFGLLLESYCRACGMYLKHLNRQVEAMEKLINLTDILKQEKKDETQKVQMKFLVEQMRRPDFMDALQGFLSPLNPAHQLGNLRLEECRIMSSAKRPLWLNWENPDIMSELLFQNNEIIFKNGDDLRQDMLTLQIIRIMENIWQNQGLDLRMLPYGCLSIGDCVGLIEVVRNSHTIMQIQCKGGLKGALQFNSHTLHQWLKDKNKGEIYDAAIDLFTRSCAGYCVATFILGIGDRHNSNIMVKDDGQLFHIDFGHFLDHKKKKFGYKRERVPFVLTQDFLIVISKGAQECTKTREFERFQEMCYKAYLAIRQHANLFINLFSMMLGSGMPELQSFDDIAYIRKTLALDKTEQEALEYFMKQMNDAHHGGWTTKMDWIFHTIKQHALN
Sequence of PI3Kalpha (P27986 whole entry partner, canonical isoform): as the sequence (P27986 whole entry partner, canonical isoform) above

Row | Compound | Relative Selectivity versus PI3Kalpha (PI3Kalpha) | IC50 (PI3Kdelta) [µM]
1 | CCn1c(-c2cnc(C)nc2)nc2c(-c3ccc4c(c3)C(C)(Nc3ccncc3)C(=O)N4)ncnc21 (racemic) [Compound 2-9, (R and S)-5-[9-ethyl-8-(2-methylpyrimidin-5-yl)-9H-purin-6-yl]-3-methyl-3-(pyridin-4-ylamino)-1,3-dihydro-2H-indol-2-one] | >10 | 0.144
2 | CCn1c(-c2cnc(C)nc2)nc2c(-c3ccc4c(c3)C(C)(N3CCC5OCCC53)C(=O)N4)ncnc21 (racemic) [Compound 2-10, (R and S)-5-[9-ethyl-8-(2-methylpyrimidin-5-yl)-9H-purin-6-yl]-3-(hexahydro-4H-furo[3,2-b]pyrrol-4-yl)-3-methyl-1,3-dihydro-2H-indol-2-one] | >10 | 0.014
3 | CCn1c(-c2cnc(C)nc2)nc2c(-c3ccc4c(c3)C(C)(N[C@H](C)C3CC3)C(=O)N4)ncnc21 (mixture of isomers) [Compound 2-11, 3-{[(1R)-1-cyclopropylethyl]amino}-5-[9-ethyl-8-(2-methylpyrimidin-5-yl)-9H-purin-6-yl]-3(R and S)-methyl-1,3-dihydro-2H-indol-2-one] | >10 | 0.015
4 | CCn1c(-c2cnc(C)nc2)nc2c(-c3ccc4c(c3)C(C)(N(C)CCOC)C(=O)N4)ncnc21 (racemic) [Compound 2-14, (R and S)-5-[9-ethyl-8-(2-methylpyrimidin-5-yl)-9H-purin-6-yl]-3-[(2-methoxyethyl)(methyl)amino]-3-methyl-1,3-dihydro-2H-indol-2-one] | >10 | 0.046
5 | CCn1c(-c2cnc(C)nc2)nc2c(-c3ccc4c(c3)C(C)(N(C)C(C)C)C(=O)N4)ncnc21 (racemic) [Compound 2-15, (R and S)-5-[9-ethyl-8-(2-methylpyrimidin-5-yl)-9H-purin-6-yl]-3-methyl-3-[methyl(1-methylethyl)amino]-1,3-dihydro-2H-indol-2-one] | >10 | 0.046
6 | CCn1c(-c2cnc(C)nc2)nc2c(-c3ccc4c(c3)C(C)(NCCOC)C(=O)N4)ncnc21 (racemic) [Compound 2-16, (R and S)-5-[9-ethyl-8-(2-methylpyrimidin-5-yl)-9H-purin-6-yl]-3-[(2-methoxyethyl)amino]-3-methyl-1,3-dihydro-2H-indol-2-one] | >10 | 0.043
7 | CCn1c(-c2cnc(C)nc2)nc2c(-c3ccc4c(c3)C(C)(N[C@H](C)C3CCC3)C(=O)N4)ncnc21 (mixture of isomers) [Compound 2-17, 3-{[(1R)-1-cyclobutylethyl]amino}-5-[9-ethyl-8-(2-methylpyrimidin-5-yl)-9H-purin-6-yl]-3(R and S)-methyl-1,3-dihydro-2H-indol-2-one] | >10 | 0.01

Next, values leading:

Row | Relative Selectivity versus PI3Kalpha (PI3Kalpha) | IC50 (PI3Kdelta) [µM] | Compound
8 | 7 |  | CCn1c(-c2cnc(C)nc2)nc2c(-c3ccc4c(c3)CNC4=O)ncnc21 [Compound 4-15, 5-(9-ethyl-8-(2-methylpyrimidin-5-yl)-9H-purin-6-yl)isoindolin-1-one]
9 | >10 |  | CCn1c(-c2cnc(C)nc2)nc2c(-c3ccc4c(c3)C(C)(c3ccccc3)OC(=O)N4)ncnc21 (stereo not drawn) [Compound 4-16, 6-(9-ethyl-8-(2-methylpyrimidin-5-yl)-9H-purin-6-yl)-4-methyl-4-phenyl-1,4-dihydro-2H-benzo[d][1,3]oxazin-2-one]
10 | >10 |  | CCn1c(-c2cnc(C)nc2)nc2c(-c3ccc4oc(=O)n(Cc5ccccc5)c4c3)ncnc21 [Compound 5-3, 3-benzyl-5-[9-ethyl-8-(2-methylpyrimidin-5-yl)-9H-purin-6-yl]-1,3-benzoxazol-2(3H)-one]
11 | >10 |  | CCn1c(-c2cnc(C)nc2)nc2c(-c3ccc4oc(=O)n(CC5CCOCC5)c4c3)ncnc21 [Compound 5-4, 5-[9-ethyl-8-(2-methylpyrimidin-5-yl)-9H-purin-6-yl]-3-(tetrahydro-2H-pyran-4-ylmethyl)-1,3-benzoxazol-2(3H)-one]

From patent publication US10544147B2, “Purine inhibitors of human phosphatidylinositol 3-kinase delta” (MERCK SHARP & DOHME CORP., priority 2016, dated 2020)
